According to patent publication US20080026486A1, “Assay Methods, Materials and Preparations” (priority 2004, published 2008):

Legend:
[1] = tested on: carbonic anhydrase II (CAII); assay: Detection of small molecules by QCRS on CAII surface; format: binding; details: for frequency shift on CAII surface: 12.5 μM
Procedure: The CAII surface was then used to capture 4-carboxybenzenesulfonamide (CBS […] in running PBSS buffer+0.25% MeOH).
The same CAII surface was used to detect 12.5 μM 4-carboxybenzenesulfonamide, and 12.5 μM 5-(dimethylamino)-1-naphthalenesulfonamide.

mouse anti-biotin IgG = assay: Detection of proteins by SPR: biotinylated BSA on Dextran T70-COOH-PDEA (428018) surfaces; format: binding; details: 10 μg/ml
Procedure: 4 flow cells having polymer treated surfaces were prepared. Flow cells (FC) 1, 2 & 3—were all activated by exposure for 7 min to […] (200 mM/50 mM). FC 3 only was then treated for 7 min with 50 μg/ml mouse anti-biotin IgG in 10 mM NaOAc buffer pH 4.5. FC 2 only was coupled to 50 μg/ml an irrelevant mouse monoclonal IgG in 10 mM NaOAc buffer pH 4.5 (7 minute exposure). FC 1, 2, 3—were capped by treatment for 5 min with ethanolamine (1 M, pH 8.5). FC 4 comprised untreated polymer.
Dextran T70-COOH-PDEA (428018) was deposited and mouse anti-biotin IgG was immobilised using the same procedure as in Example 7. The measurement of the immobilisation is shown in FIG. 12, which again is a graph of response (RU) against time (seconds).

Compound	frequency shift on CAII surface [1]	frequency shift on capture by CAII surface ([1]; 25 μm in running PBSS buffer + […] MeOH)	binding to anti-biotin IgG surface (FC3) (mouse anti-biotin IgG; FC3)	binding to control surfaces (FC1, 2 and 4) (mouse anti-biotin IgG; capped polymer, irrelevant mouse IgG, unactivated polymer)
CN(C)c1cccc2c(S(N)(=O)=O)cccc12 [5-(dimethylamino)-1-naphthalenesulfonamide]	1.2 Hz	–	–	–
NS(=O)(=O)c1ccc(C(=O)O)cc1 [4-carboxybenzenesulfonamide]	2.5 Hz	6 Hz	–	–
biotinylated BSA: biotinylated bovine serum albumin used as analyte	–	–	Specific binding occurs	minimal non-specific binding
